Measurements from patent US11591319B2, “Small molecule inducers of autophagy” (Board of Regents, The University of Texas System, priority 2018, dated 2023).

What was measured:
BH3 domain of Bax/Bcl-2 = BH3 domain of Bax/Bcl-2 (Homo sapiens (Human), UniProt P10415); test: Bax BH3 peptide/Bcl-2 AlphaLISA; type: binding; details: AlphaLISA with BH3 peptide
Description: (§1) To assess selectivity for disruption of binding of the BH3 domain of Beclin 1 to Bcl-2 as compared to that of a pro-apoptotic Bcl-2 family member, we used an AlphaLISA with purified recombinant Bcl-2 and peptides spanning either the BH3 domain (amino acids 105-130) of Beclin 1 or the BH3 domain (amino acids 49-84) of Bax.
(§2) The Beclin 1 BH3 peptide consists of an N-terminally linked biotin, a YGGGGS linker, and […] (a.a. 105-130) derived from human Beclin 1. Bax BH3 peptide consists of an N-terminally linked biotin, a YGGGGS linker, and 36 amino acids (a.a. 49-84) derived from human Bax. Biotin-6xHis control peptide consists of an N-terminally linked biotin, a YGGGGS linker, and a 6xHis tag at C-terminus.
(§3) For dose-response AlphaLISA experiments, compounds were serially diluted (2-fold, 7 point) with DMSO and added to BB buffer containing purified recombinant proteins or biotinylated peptides at a final concentration range of 10 μM to 156 nM. Protein or peptide concentrations used in dose-response AlphaLISA experiments were as follows: Beclin1/Bcl-2—300 nM/60 nM; SUMO (internal control for Beclin 1/Bcl-2 AlphaLISA)—20 nM; Beclin 1 BH3/Bcl-2—1000 nM/60 nM; Bax BH3/Bcl-2—100 nM/20 nM; Biotin-6xHis (internal control for BH3/Bcl-2 AlphaLISA)—10

HeLa cells [1] = test: CellTiter-Glo cytotoxicity assay; type: cell-based; details: 20 μM
[2] = biological target: T1, Beclin 1/Bcl-2 interaction (Homo sapiens (Human), UniProt P10415); test: Beclin 1/Bcl-2 split-luciferase assay in HeLa cells; type: cell-based
Target sequence in this assay (P10415 whole entry): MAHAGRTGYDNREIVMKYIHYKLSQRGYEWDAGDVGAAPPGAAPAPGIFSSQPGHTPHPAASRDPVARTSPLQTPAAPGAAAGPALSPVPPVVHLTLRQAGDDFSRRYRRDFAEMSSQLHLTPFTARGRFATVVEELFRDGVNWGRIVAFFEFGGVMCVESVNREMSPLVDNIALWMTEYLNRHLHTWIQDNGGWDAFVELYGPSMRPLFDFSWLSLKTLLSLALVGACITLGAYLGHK
Description: The split-luciferase approach relies on the reconstitution of two fragments of firefly luciferase, NLuc (amino acids 2-416) and CLuc (amino acids 398-550) expressed with proteins of interest as fusion partners. Upon the binding of interacting partners, two non-functional fragments of the luciferase are brought into proximity, forming an active luciferase protein. To measure Beclin 1/Bcl-2 interaction with the split-luciferase assay, we created HeLa cell lines expressing N-terminal NLuc-tagged Beclin 1 (NLuc-Beclin 1) and CLuc-tagged Bcl-2 (CLuc-Bcl-2) as split-luciferase reporters. […] Renilla luciferase was constitutively expressed as an internal control. The interaction of Beclin 1/Bcl-2 was measured as relative luminescence units (RLU), which was the calculated ratio of split-luciferase and Renilla luciferase signals: […]
DMSO (neutral control), ABT-737 (positive control), or the library compounds were added to a final concentration of 5 μM and incubated at 37° C. […] After 5 h of incubation, the medium was removed by centrifugation and the activity of Beclin 1/Bcl-2 split-luciferase reporters was measured with Dual-Glo® Luciferase Assay System (Promega). […] Ten microliters of 1× RL buffer (Stop & Glo Reagent) was then added to the sample, the sample was incubated at room temperature for 10 min, and the activity of Renilla luciferase was measured again. […]

[3] = system: HeLa cells stably expressing GFP-LC3; test: GFP-LC3 puncta quantitation (autophagy); type: cell-based
Method: We used well-established assays to assess their autophagic activity,^45 including (i) quantitation of GFP-LC3 puncta (which label autophagosomes) in the presence and absence of the lysosomal inhibitor, bafilomycin A1 (Baf A1), and (ii) western blot analysis of the conversion of LC3-I to the lipidated, autophagosomal-associated protein, LC3-II in the presence and absence of Baf A1. […] Shorter durations of lower concentrations of compounds (10 μM) also produced similar results. […] Thus, these compounds induce autophagic flux in HeLa cells.
(§4) We assessed whether the induction of autophagy by SW063058 and SW076956 requires Beclin 1 and Bcl-2 using siRNA to knockdown each protein, respectively, in HeLa, cells.

PARP = PARP cleavage (apoptosis); type: cell-based; details: 10 or 20 μM
[4] = biological target: T1, Beclin 1/Bcl-2 interaction; test: Beclin 1/Bcl-2 AlphaLISA assay (dose-response); type: binding; details: positive control
Description: We also developed a high-throughput Beclin 1/Bcl-2 AlphaLISA assay to directly measure the in vitro interaction between Beclin 1 and Bcl-2. AlphaLISA is a bead-based proximity assay that is capable of measuring protein-protein interaction in homogeneous solution.^41 Oxygen singlet molecules are generated by Alpha donor beads upon irradiation at 680 nm and travel to acceptor beads in proximity. […] Thus, a measurable Alpha luminescence signal requires chemical energy transfer between the donor and acceptor beads, and a pair of interacting molecules immobilized on the beads stabilizes bead association to produce measurable Alpha signals.
We used purified recombinant Beclin 1 and Bcl-2 proteins for AlphaLISA, which were optimized for enhanced solubility and expression. Human Beclin 1 was expressed as a fusion protein with StrepII-SUMO at the N-terminus, and three residues on the aromatic finger of Beclin 1 were mutated (F359D/F360D/W361D) to improve solubility and protein stability.^42 These mutations are in the BARA domain, which is far from the BH3 motif recognized by Bcl-2. A recombinant Bcl-2-binding deficient mutant of Beclin 1 (StrepII-SUMO-Beclin 1^ΔBcl-2BD) was used as a negative control. […] For a normalization control, we included a parallel AlphaLISA assay with purified SUMO protein (with an N-terminal StrepII tag and a C-terminal 6xHis tag). The purpose of a normalization control is to eliminate inner filter (false-positive) hits that reduce luminescence signal by interfering with the AlphaLISA assay in ways that are unrelated to the Beclin 1/Bcl-2 interaction. With the normalization control, the interaction of Beclin 1 and Bcl-2 was measured as follows:
All AlphaLISA assays were performed in triplicate in a 384-well format with BB buffer (phosphate-buffered saline supplemented with 0.5% BSA and 1 mM DTT). For the Beclin 1/Bcl-2 AlphaLISA, purified StrepII-SUMO-Beclin 1 was incubated with Bcl-2-6xHis proteins at 300 nM and 60 nM, respectively. For internal control AlphaLISA assays, StrepII-SUMO-6xHis protein (internal control) was used at 20 nM. […] Following the initial incubation, Strep-Tactin Alpha donor (AS106D) and anti-6xHis AlphaLISA acceptor beads (AL128M) were added to a final concentration of 40 μg/mL each and incubated at room temperature in the dark for an additional 1 h. All samples were evaluated in triplicate. Alpha signals were measured by an Envision plate reader (Perkin Elmer). Beclin 1/Bcl-2 Alpha signal was normalized with internal control Alpha signal. The normalized value represents the binding activity of Beclin 1 and Bcl-2. The percent activity of a compound was calculated as the following formula: […]
Protein or peptide concentrations used in dose-response AlphaLISA experiments were as follows: Beclin1/Bcl-2—300 nM/60 nM; SUMO (internal control for Beclin 1/Bcl-2 AlphaLISA)—20 nM; Beclin 1 BH3/Bcl-2—1000 nM/60 nM; Bax BH3/Bcl-2—100 nM/20 nM; Biotin-6xHis (internal control for BH3/Bcl-2 AlphaLISA)—10
Target sequence in this assay (P10415 1-218): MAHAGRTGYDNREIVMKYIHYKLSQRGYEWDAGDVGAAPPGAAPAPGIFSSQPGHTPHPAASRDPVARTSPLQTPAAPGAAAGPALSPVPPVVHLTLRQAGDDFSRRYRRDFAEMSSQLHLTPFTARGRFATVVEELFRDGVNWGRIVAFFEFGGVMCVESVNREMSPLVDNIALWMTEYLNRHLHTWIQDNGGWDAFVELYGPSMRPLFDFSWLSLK

[5] = biological target: Bim/Myc-Bcl-2 interaction (Homo sapiens (Human), UniProt P10415); test: Co-immunoprecipitation of Bim with Myc-Bcl-2 in HeLa cells; type: cell-based; details: 12 h treatment
Chain of Bim/Myc-Bcl-2 interaction (P10415 whole entry): as the sequence (P10415 whole entry) above
Description: For the two compounds for which we had sufficient supply for large-scale tissue culture experiments (SW063058 and SW076956), we examined their effects on Beclin 1, Bax, and Bim co-immunoprecipitation with Bcl-2.

[6] = biological target: BH3 domain of Beclin 1/Bcl-2 (Homo sapiens (Human), UniProt P10415); test: Beclin 1 BH3 peptide/Bcl-2 AlphaLISA; type: binding; details: AlphaLISA with BH3 peptide
Chain of BH3 domain of Beclin 1/Bcl-2 (P10415 1-218): as the sequence (P10415 1-218) above
Description: as §1, §2, §3

HeLa cells [7] = test: p62 levels after Beclin 1 or Bcl-2 siRNA knockdown; type: cell-based; details: cells with either Beclin 1 or Bcl-2 knockdown
Description: as §4

[8] = system: HeLa cells that overexpress Bcl-2; test: CellTiter-Glo cell death in Bcl-2 overexpressing cells; type: cell-based

Chain of BH3 domain of Bax/Bcl-2 (P10415 1-218): as above

CN(C)CC[C@H](CSc1ccccc1)Nc1ccc(S(=O)(=O)NC(=O)c2ccc(N3CCN(Cc4ccccc4-c4ccc(Cl)cc4)CC3)cc2)cc1[N+](=O)[O-] [ABT-737]
binding of the BH3 domain of Bax to Bcl-2 (BH3 domain of Bax/Bcl-2): nanomolar efficiency | cytotoxicity (CellTiter-Glo) (HeLa cells [1]): mild cytotoxicity | split-luciferase luminescence activity [2]: inhibited in a dose-dependent manner | GFP-LC3 puncta in Bcl-2 knockdown cells ([3]; Bcl-2 siRNA): no further increase in GFP-LC3 puncta | GFP-LC3 puncta in Beclin 1 knockdown cells ([3]; Beclin 1 siRNA): no further increase in GFP-LC3 puncta | PARP cleavage (PARP): dose-dependent increase in PARP cleavage | inhibition of Beclin 1/Bcl-2 Alpha signal [4]: inhibited in a dose-dependent manner | Bim/Myc-Bcl-2 interaction (co-immunoprecipitation) [5]: disrupt co-immunoprecipitation | binding of the BH3 domain of Beclin 1 to Bcl-2 [6]: nanomolar efficiency | p62 levels (HeLa cells [7]): failed to alter p62 levels | cell death in HeLa cells that overexpress Bcl-2 [8]: more pronounced dose-dependent increase in cell death
